# From US20230248037A1, “FLAVOUR ADDITIVES” (MARS, INCORPORATED, priority 2012, published 2023)
# System: T1R1/T1R3 receptor (umami receptor)
# Assay: In vitro screening for binding and activation of the umami receptor
# Type: cell-based, cat
# Conditions: feline umami receptor
# Experimental: In vitro screening was carried out in order to establish which first amino acids bind and activate the umami receptor.
# In vitro screening was carried out in order to establish which second amino acids bind and activate the umami receptor.
row,SMILES,binding to the feline umami receptor
1,N[C@@H](CC(=O)O)C(=O)O [aspartic acid],does not bind
2,N[C@@H](CCC(=O)O)C(=O)O [glutamic acid],does not bind

# Same assay, conditions: in silico modelling and in vitro assays using a non-human umami receptor; screening in the presence of 0.2 mM IMP
row,SMILES,binding to and activation of the umami receptor
1,NCC(=O)O [glycine],able to bind to and activate the umami receptor to different extents
2,N[C@@H](Cc1c[nH]c2ccccc12)C(=O)O [tryptophan],able to bind to and activate the umami receptor to different extents
3,CC(C)C[C@H](N)C(=O)O [leucine],able to bind to and activate the umami receptor to different extents
4,N[C@@H](Cc1c[nH]cn1)C(=O)O [histidine],able to bind to and activate the umami receptor to different extents
5,N[C@@H](Cc1ccccc1)C(=O)O [phenylalanine],able to bind to and activate the umami receptor to different extents
6,N[C@@H](CS)C(=O)O [cysteine],able to bind to and activate the umami receptor to different extents
7,NC(=O)C[C@H](N)C(=O)O [asparagine],able to bind to and activate the umami receptor to different extents
8,N[C@@H](CO)C(=O)O [serine],able to bind to and activate the umami receptor to different extents
9,C[C@H](N)C(=O)O [alanine],able to bind to and activate the umami receptor to different extents
10,N[C@@H](Cc1ccc(O)cc1)C(=O)O [tyrosine],able to bind to and activate the umami receptor to different extents
11,CSCC[C@H](N)C(=O)O [methionine],able to bind to and activate the umami receptor to different extents

# System: cats
# Assay: 2-bottle choice difference test of tastant solutions in water, intake by cats
# Parameters: species or system cat
# Conditions: amino acids of the second group
# Experimental: Cats were allowed access to water containing either 25 mM proline+25 mM histidine with a composition comprising 50 mM histidine. The methodology used a 2-bottle choice test with 24 cats (the final number of cats for each test can vary due to data being discarded by spillage, etc.). Cats were housed individually during trial periods and had free access to water available between testing periods. The test involved a choice test between the tastant/mixture at a given concentration dissolved in deionised water versus deionised water only or another tastant/mixture. Control was made for positional bias (e.g. A/B exposure 1 and B/A exposure 2) and evaporation loss. The testing time was 36 hours (i.e. 18 hours per day, allowing a two-day crossover). Following two consecutive days of each testing, cats had two consecutive days of rest. Cats were offered a dry diet as a single meal at the start of the test period for one hour, calculated to meet the individual requirements for each cat.
row,SMILES,acceptance (flavour effect) in in vivo tests
1,N[C@@H](CC(=O)O)C(=O)O [aspartic acid],positive acceptance
2,CC[C@H](C)[C@H](N)C(=O)O [isoleucine],positive acceptance
3,N[C@@H](CCC(=O)O)C(=O)O [glutamic acid],positive acceptance
4,O=C(O)[C@@H]1CCCN1 [proline],positive acceptance
5,NCCC[C@H](N)C(=O)O [ornithine],positive acceptance
6,NCCCC[C@H](N)C(=O)O [lysine],positive acceptance
7,CC(C)[C@H](N)C(=O)O [valine],positive acceptance
8,C[C@@H](O)[C@H](N)C(=O)O [threonine],positive acceptance
9,O=C(O)[C@@H]1C[C@@H](O)CN1 [hydroxyproline],positive acceptance
10,NC(=O)CC[C@H](N)C(=O)O [glutamine],positive acceptance
11,N[C@@H](CSSC[C@H](N)C(=O)O)C(=O)O [cystine],positive acceptance
